Assay results published in patent US20260138978A1, “POSITIVE ALLOSTERIC MODULATORS OF THE MUSCARINIC ACETYLCHOLINE RECEPTOR M1” (Vanderbilt University, priority 2022, published 2026).

How the values were obtained:
human mAChRM1 [1] = target: T1, human mAChRM1 (Homo sapiens, UniProt P11229); assay: mAChR M1 cell-based functional assay (calcium mobilization), positive allosteric modulator activity: increase in the EC20 acetylcholine response; conditions: for Emax: PAM mode; for EC50: increase in the EC20 acetylcholine response, read-out: PAM Activity Human M1 EC50
T1 construct: host or cells: CHO-K1
T1 sequence (P11229 1-460): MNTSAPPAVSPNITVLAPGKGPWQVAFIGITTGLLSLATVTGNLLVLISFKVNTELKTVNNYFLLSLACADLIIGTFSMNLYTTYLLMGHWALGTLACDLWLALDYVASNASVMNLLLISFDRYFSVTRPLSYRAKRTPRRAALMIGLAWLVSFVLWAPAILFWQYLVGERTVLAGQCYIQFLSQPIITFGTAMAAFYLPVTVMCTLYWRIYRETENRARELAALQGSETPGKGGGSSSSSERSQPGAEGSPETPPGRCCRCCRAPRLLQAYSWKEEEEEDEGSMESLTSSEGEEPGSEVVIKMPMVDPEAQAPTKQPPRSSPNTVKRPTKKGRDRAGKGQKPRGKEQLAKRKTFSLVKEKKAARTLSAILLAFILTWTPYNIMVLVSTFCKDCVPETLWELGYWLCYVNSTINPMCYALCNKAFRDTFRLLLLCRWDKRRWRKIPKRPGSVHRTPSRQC
Procedure, shortened: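 Potentiation is scored as the rise in an EC20 acetylcholine-evoked calcium signal across 11-point (1:3) compound series, fitted with a four-parameter logistic equation to give EC50 and Emax. Read-out is Fluo-4 fluorescence ratio in hM1-transfected CHO-K1 cells, measured kinetically on FDSS.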

human mAChRM1 [2] = target: T1, human mAChRM1; assay: mAChR M1 cell-based functional assay (calcium mobilization), agonist activity upon compound addition, Emax relative to acetylcholine maximum; conditions: for Agonist Activity Human M1 EC50 / EC50: calcium mobilization upon compound addition; for Emax: relative to the maximum for acetylcholine
Procedure, shortened: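 Emax is given as a percentage of the maximal acetylcholine response, from four-parameter curves of compound-evoked calcium mobilization. Human M1-transfected CHO-K1 cells carried Fluo-4 dye, and compound (11 concentrations, 1:3 steps) was applied at 4 s of a 300 s kinetic fluorescence recording.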

SMILES	Emax (human mAChRM1 [1]) [%]	EC50 (human mAChRM1 [1]) [nM]	Agonist Activity Human M1 EC50 (human mAChRM1 [2])	EC50 (human mAChRM1 [2]) [nM]	Emax (human mAChRM1 [2]) [%]
Cc1cc(-c2cc(C(C)(C)O)cc3nn(C)cc23)ccc1CN1Cc2ncccc2C1=O [Compound 27, 6-(4-(6-(2-hydroxypropan-2-yl)-2-methyl-2H-indazol-4-yl)-2-methylbenzyl)-6,7-dihydro-5H-pyrrolo[3,4-b]pyridin-5-one]	83	3280	inactive		
Cc1cc(-c2ccc(C(C)(C)O)c3nn(C)cc23)ccc1CN1Cc2cccnc2C1=O [Compound 132, 6-(4-(7-(2-hydroxypropan-2-yl)-2-methyl-2H-indazol-4-yl)-2-methylbenzyl)-5,6-dihydro-7H-pyrrolo[3,4-b]pyridin-7-one]	87	499		≥ 10000	14
CCC(C)(O)c1ccc(-c2cc(F)c(CN3Cc4ncccc4C3=O)c(F)c2)c2cn(C)nc12 (centres unmarked) [Compound 82, 6-(2,6-difluoro-4-(7-(2-hydroxybutan-2-yl)-2-methyl-2H-indazol-4-yl)benzyl)-6,7-dihydro-5H-pyrrolo[3,4-b]pyridin-5-one]	80	138	inactive		
COc1cc(-c2ccc(C(C)(C)O)c3nn(C)cc23)cc(F)c1CN1Cc2ncccc2C1=O [Compound 60, 6-(2-fluoro-4-(7-(2-hydroxypropan-2-yl)-2-methyl-2H-indazol-4-yl)-6-methoxybenzyl)-6,7-dihydro-5H-pyrrolo[3,4-b]pyridin-5-one]	68	163	inactive		
Cc1cc(-c2ccc(C(C)(C)O)c3nn(C)cc23)cc(F)c1CN1Cc2cccnc2C1=O [Compound 123, 6-(2-fluoro-4-(7-(2-hydroxypropan-2-yl)-2-methyl-2H-indazol-4-yl)-6-methylbenzyl)-5,6-dihydro-7H-pyrrolo[3,4-b]pyridin-7-one]	84	124		≥ 10000	34
Cn1cc2c(-c3cc(F)c(CN4Cc5ncccc5C4=O)c(F)c3)ccc(C3(O)CCOCC3)c2n1 [Compound 92, 6-(2,6-difluoro-4-(7-(4-hydroxytetrahydro-2H-pyran-4-yl)-2-methyl-2H-indazol-4-yl)benzyl)-6,7-dihydro-5H-pyrrolo[3,4-b]pyridin-5-one]	81	76		1400	22
CC[C@](C)(O)c1ccc(-c2cc(F)c(CN3Cc4ncccc4C3=O)c(F)c2)c2cn(C)nc12 [Compound 103, (S)-6-(2,6-difluoro-4-(7-(2-hydroxybutan-2-yl)-2-methyl-2H-indazol-4-yl)benzyl)-6,7-dihydro-5H-pyrrolo[3,4-b]pyridin-5-one]	87	254		4230	11
Cn1cc2c(-c3cc(F)c(CN4Cc5cccc(F)c5C4=O)cc3F)ccc(C(C)(C)O)c2n1 [Compound 163, 2-(2,5-difluoro-4-(7-(2-hydroxypropan-2-yl)-2-methyl-2H-indazol-4-yl)benzyl)-7-fluoroisoindolin-1-one]	78	124		≥ 10000	11
[2H]C1([2H])c2ncccc2C(=O)N1Cc1cc(F)c(-c2ccc(C(C)(C)O)c3nn(C)cc23)cc1F [Compound 148, 6-(2,5-difluoro-4-(7-(2-hydroxypropan-2-yl)-2-methyl-2H-indazol-4-yl)benzyl)-6,7-dihydro-5H-pyrrolo[3,4-b]pyridin-5-one-7,7-d2]	89	206		≥ 10000	27
Cn1cc2c(-c3cnc(CN4Cc5ncccc5C4=O)cn3)ccc(C(C)(C)O)c2n1 [Compound 109, 6-((5-(7-(2-hydroxypropan-2-yl)-2-methyl-2H-indazol-4-yl)pyrazin-2-yl)methyl)-6,7-dihydro-5H-pyrrolo[3,4-b]pyridin-5-one]	70	≥ 10000	inactive		
[2H]C1([2H])c2ncccc2C(=O)N1Cc1c(F)cc(-c2ccc(C(C)(C)O)c3nn(C([2H])([2H])[2H])cc23)cc1C1CC1 (single isomer, unassigned) [Compound 147, 6-(2-cyclopropyl-6-fluoro-4-(7-(2-hydroxypropan-2-yl)-2-(methyl-d3)-2H-indazol-4-yl)benzyl)-6,7-dihydro-5H-pyrrolo[3,4-b]pyridin-5-one-7,7-d2]	62	74		6190	43
Cn1cc2c(-c3ccc(CN4Cc5ncccc5C4=O)cc3)ccc(C(C)(C)O)c2n1 [Compound 59, 6-(4-(7-(2-hydroxypropan-2-yl)-2-methyl-2H-indazol-4-yl)benzyl)-6,7-dihydro-5H-pyrrolo[3,4-b]pyridin-5-one]	67	396		≥ 10000	16

The remaining lines, values ahead:

Emax (human mAChRM1 [1]) [%]	EC50 (human mAChRM1 [1]) [nM]	Agonist Activity Human M1 EC50 (human mAChRM1 [2])	EC50 (human mAChRM1 [2]) [nM]	Emax (human mAChRM1 [2]) [%]	SMILES
83	116		2460	20	Cn1cc2c(-c3cc(F)c(CN4Cc5ncccc5C4=O)c(F)c3)ccc(C3(O)CCOC3)c2n1 (centres unmarked) [Compound 90, 6-(2,6-difluoro-4-(7-(3-hydroxytetrahydrofuran-3-yl)-2-methyl-2H-indazol-4-yl)benzyl)-6,7-dihydro-5H-pyrrolo[3,4-b]pyridin-5-one]
63	145		6330	15	Cn1cc2c(-c3cc(Cl)c(CN4Cc5ncccc5C4=O)c(Cl)c3)ccc(C(C)(C)O)c2n1 [Compound 64, 6-(2,6-dichloro-4-(7-(2-hydroxypropan-2-yl)-2-methyl-2H-indazol-4-yl)benzyl)-6,7-dihydro-5H-pyrrolo[3,4-b]pyridin-5-one]
62	1910	inactive			Cn1cc2c(-c3cc(F)c(CN4Cc5ncccc5C4=O)c(C4CCCC4)c3)ccc(C(C)(C)O)c2n1 [Compound 66, 6-(2-cyclopentyl-6-fluoro-4-(7-(2-hydroxypropan-2-yl)-2-methyl-2H-indazol-4-yl)benzyl)-6,7-dihydro-5H-pyrrolo[3,4-b]pyridin-5-one]
88	201		≥ 10000	22	Cn1cc2c(-c3cc(F)c(CN4Cc5cccnc5C4=O)c(F)c3)ccc(C(C)(C)O)c2n1 [Compound 121, 6-(2,6-difluoro-4-(7-(2-hydroxypropan-2-yl)-2-methyl-2H-indazol-4-yl)benzyl)-5,6-dihydro-7H-pyrrolo[3,4-b]pyridin-7-one]
76	1210	inactive			Cn1ncc2c(-c3cc(F)c(CN4Cc5ncccc5C4=O)c(F)c3)ccc(C(C)(C)O)c21 [Compound 79, 6-(2,6-difluoro-4-(7-(2-hydroxypropan-2-yl)-1-methyl-1H-indazol-4-yl)benzyl)-6,7-dihydro-5H-pyrrolo[3,4-b]pyridin-5-one]
49	≥ 10000	inactive			Cn1nc(C(C)(C)O)cc1-c1cc(F)c(CN2Cc3ncccc3C2=O)c(C2CC2)c1 [Compound 68, 6-(2-cyclopropyl-6-fluoro-4-(3-(2-hydroxypropan-2-yl)-1-methyl-1H-pyrazol-5-yl)benzyl)-6,7-dihydro-5H-pyrrolo[3,4-b]pyridin-5-one]
